Laboratory results taken from PubChem BioAssay (NCI).
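96-well plates; 48 h exposure; 5 concentrations. Endpoints by linear interpolation between flanking doses. Not reached: highest tested concentration assigned. TGI marks complete inhibition of growth.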

Assays:
Experiment in all cases: growth of human tumour cells (NCI), 48 h
HS 578T breast = tested on: HS 578T breast
786-0 renal = tested on: 786-0 renal
SNB-19 CNS = tested on: SNB-19 CNS
HOP-62 NSCLC = tested on: HOP-62 NSCLC
DU-145 prostate = tested on: DU-145 prostate
MCF7 breast = tested on: MCF7 breast
HCC-2998 colon = tested on: HCC-2998 colon
LOX IMVI melanoma = tested on: LOX IMVI melanoma
U251 CNS = tested on: U251 CNS
SK-MEL-28 melanoma = tested on: SK-MEL-28 melanoma
UO-31 renal = tested on: UO-31 renal
SK-OV-3 ovarian = tested on: SK-OV-3 ovarian
TK-10 renal = tested on: TK-10 renal
HT29 colon = tested on: HT29 colon
NCI/ADR-RES ovarian = tested on: NCI/ADR-RES ovarian
A498 renal = tested on: A498 renal
SNB-75 CNS = tested on: SNB-75 CNS
NCI-H522 lung = tested on: NCI-H522 lung
OVCAR-8 ovarian = tested on: OVCAR-8 ovarian
SR leukemia = tested on: SR leukemia
COLO 205 colon = tested on: COLO 205 colon
CCRF-CEM leukemia = tested on: CCRF-CEM leukemia
NCI-H23 lung = tested on: NCI-H23 lung
CAKI-1 renal = tested on: CAKI-1 renal
MDA-MB-435 = tested on: MDA-MB-435
SF-268 CNS = tested on: SF-268 CNS
SF-539 CNS = tested on: SF-539 CNS
MALME-3M melanoma = tested on: MALME-3M melanoma
IGROV1 ovarian = tested on: IGROV1 ovarian
A549 NSCLC = tested on: A549 NSCLC
SW-620 colon = tested on: SW-620 colon
SF-295 CNS = tested on: SF-295 CNS
T-47D breast = tested on: T-47D breast
HOP-92 NSCLC = tested on: HOP-92 NSCLC
HCT-15 colon = tested on: HCT-15 colon
NCI-H460 lung = tested on: NCI-H460 lung
RPMI-8226 leukemia = tested on: RPMI-8226 leukemia
UACC-62 melanoma = tested on: UACC-62 melanoma
OVCAR-3 ovarian = tested on: OVCAR-3 ovarian
MDA-MB-231 breast = tested on: MDA-MB-231 breast
KM12 colon = tested on: KM12 colon
ACHN renal = tested on: ACHN renal
PC-3 prostate = tested on: PC-3 prostate
NCI-H226 lung = tested on: NCI-H226 lung
K-562 leukemia = tested on: K-562 leukemia
BT-549 breast = tested on: BT-549 breast
SK-MEL-2 melanoma = tested on: SK-MEL-2 melanoma
M14 melanoma = tested on: M14 melanoma
SK-MEL-5 melanoma = tested on: SK-MEL-5 melanoma
OVCAR-4 ovarian = tested on: OVCAR-4 ovarian
MOLT-4 leukemia = tested on: MOLT-4 leukemia
HCT-116 colon = tested on: HCT-116 colon
OVCAR-5 ovarian = tested on: OVCAR-5 ovarian
RXF 393 renal = tested on: RXF 393 renal
MDA-N = tested on: MDA-N
UACC-257 melanoma = tested on: UACC-257 melanoma
SN12C renal = tested on: SN12C renal
HL-60(TB) leukemia = tested on: HL-60(TB) leukemia

Measured: TGI

NC(N)=N/N=C/c1ccc(O)c(C(=O)O)c1
not listed: SN12C renal | HL-60(TB) leukemia
> 100 µM: all other assays above

CC1(C)S[C@@H]2[C@H](NC(=O)/C=C/c3ccccc3)C(=O)N2[C@H]1C(=O)O
not listed: A498 renal | K-562 leukemia | RXF 393 renal
> 100 µM: all other assays above
